Data from PMC4891693, “Discovery of prenylated flavonoids with dual activity against influenza virus and Streptococcus pneumoniae” (Scientific Reports, 2016).
In brackets after ≈: the same amount, converted by molar mass. Read-outs that look alike come from different tables or passages of the source.

Assays:
[1] = tested on: human erythrocytes; assay: Interference with hemagglutination in the viral HA assay
[2] = in vitro; details: dog
[3] = tested on: human erythrocytes
[4] = in vitro; details: human
[5] = biological target: influenza virus A/WSN/33 NA (Influenza A virus, UniProt P03470); assay: biochemical
Chain of influenza virus A/WSN/33 NA (P03470 whole entry, looked up): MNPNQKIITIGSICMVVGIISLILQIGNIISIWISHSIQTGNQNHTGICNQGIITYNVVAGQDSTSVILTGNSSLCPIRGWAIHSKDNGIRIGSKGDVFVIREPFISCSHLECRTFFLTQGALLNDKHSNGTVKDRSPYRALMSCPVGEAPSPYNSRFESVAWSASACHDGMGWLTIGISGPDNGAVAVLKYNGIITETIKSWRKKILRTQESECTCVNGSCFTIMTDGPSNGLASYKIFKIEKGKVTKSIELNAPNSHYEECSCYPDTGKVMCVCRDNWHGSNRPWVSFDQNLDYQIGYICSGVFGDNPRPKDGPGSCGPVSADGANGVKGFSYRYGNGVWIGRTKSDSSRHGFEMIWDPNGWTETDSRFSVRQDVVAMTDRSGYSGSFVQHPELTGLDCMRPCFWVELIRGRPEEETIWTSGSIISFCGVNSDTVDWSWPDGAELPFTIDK

[6] = tested on: NA of S. pneumoniae DSM20566 (precipitated bacterial proteins); assay: Hemagglutination (HA)-based NA inhibition assay, bacterial; format: biochemical, Streptococcus pneumoniae; details: pure compounds; total protein of DSM20566; human erythrocytes; highest tested 100 μM
From the text: Inhibition of pneumococcal NAs circumvents hemagglutination.

[7] = tested on: human erythrocytes; remark: listed apart in the source

Row | Structure (SMILES) | sample concentrations provoking prevention of virus-induced hemagglutination in viral HA assay [1] | CC50 at 72 h [2] | sample concentrations provoking induction of erythrocyte lysis in bacterial HA assay ([3]; human) | CC50 at 72 h [4] | IC50 [5] | MIC in HA assay against S. pneumoniae DSM20566 [6] | sample concentrations provoking induction of erythrocyte lysis in viral HA assay [7] | sample concentrations provoking induction of erythrocyte lysis in bacterial HA assay [3] | sample concentrations provoking induction of erythrocyte lysis in viral HA assay ([7]; human) | CC50 [2] | CC50 [4]
1 | CC(C)=CCC/C(C)=C/Cc1c(O)cc(O)c2c1OC(c1ccccc1)CC2=O (racemic) [Compound 24, (R,S)-8-geranyl-5,7-dihydroxyflavanone] | 100 µM | 60.6 ± 3.81 µM | 100 µM | > 100 µM | > 100 µM | 3.16 ± 0.00 µM (≈ 1.24 µg/mL) | no |  |  |  | 
2 | COc1cc(C2CC(=O)c3c(O)cc(O)cc3O2)cc(CC=C(C)C)c1O (stereo not drawn) [Compound 21, 2,3-dihydro-5,7-dihydroxy-2-[4-hydroxy-3-methoxy-5-(3-methyl-2-butenyl)phenyl]-4H-1-benzopyran-4-one] | no | 64.9 ± 1.28 µM |  | > 100 µM | 45.5 ± 6.06 µM | 65.8 ± 37.5 µM (≈ 24.4 µg/mL) | no | no |  |  | 
3 | CC(C)=CCc1c(O)c(CC=C(C)C)c2c(c1O)C(=O)C[C@@H](c1ccc(O)cc1)O2 [Compound 28, 6,8-diprenylnaringenin] | no | 15.8 ± 7.58 µM | 100 µM | 59.1 ± 19.8 µM | > 100 µM | 15.4 ± 10.8 µM (≈ 6.29 µg/mL) | no |  |  |  | 
4 | CC(C)=CCC/C(C)=C/Cc1c(O)cc2c(c1O)C(=O)CC(c1ccc(O)c(O)c1)O2 (stereo not drawn) [Compound 25] | 31.6 µM | 55.8 ± 4.41 µM | 100 µM | > 100 µM | 41.4 ± 6.98 µM | 14.3 ± 9.66 µM (≈ 6.07 µg/mL) |  |  | 100 or no |  | 
5 | CC(C)=CCC/C(C)=C/Cc1c(O)cc2c(c1O)C(=O)[C@H](O)[C@@H](c1ccc(O)cc1)O2 [Compound 26, bonanniol A] | no | 42.2 ± 22.6 µM | 100 µM | 63.2 ± 25.9 µM | 63.9 ± 11.1 µM | 10.0 ± 0.00 µM (≈ 4.24 µg/mL) |  |  | 31.6 to 100 µM |  | 
6 | CC(C)=CCc1c(O)cc(CCc2ccccc2)c(CC=C(C)C)c1O [Compound 33, 2,4-bis(3-methyl-2-buten-1-yl)-5-(2-phenylethyl)-1,3-benzenediol] | no | 33.4 ± 21.4 µM |  | 41.7 ± 14.6 µM | 97.7 ± 0.46 µM | 10.0 ± 0.00 µM (≈ 3.51 µg/mL) | no | no |  |  | 
7 | CC(C)=CCc1c(O)c(CC=C(C)C)c2[nH]c3c(O)cccc3c(=O)c2c1O [Compound 34, atalphylline] | no |  |  |  | > 100 µM | 17.2 ± 12.5 µM (≈ 6.53 µg/mL) | no | no |  | 0.63 ± 0.04 µM | 60.4 ± 16.8 µM
8 | COc1cc(C2CC(=O)c3c(O)cc(O)cc3O2)ccc1O (racemic) [Compound 9, (±)-homoeriodictyol] | no |  |  |  |  |  | no | no |  |  | 
9 | CC(C)=CCc1c(O)c(CC=C(C)C)c2c(c1O)C(=O)C(c1ccc(O)cc1O)CO2 (stereo not drawn) [Compound 32, orientanol E] | no | 21.4 ± 0.73 µM | 31.6 to 100 µM | 79.6 ± 2.77 µM | 26.9 ± 1.85 µM | 10.0 ± 0.00 µM (≈ 4.24 µg/mL) |  |  | 31.6 to 100 µM |  | 
10 | CC(C)=CCc1c(O)c(CC=C(C)C)c2c(c1O)C(=O)CC(c1cc(O)cc(O)c1)O2 (stereo not drawn) [Compound 29, 2-(3,5-dihydroxyphenyl)-2,3-dihydro-5,7-dihydroxy-6,8-bis(3-methyl-2-buten-1-yl)-4H-1-benzopyran-4-one] | 31.6 to 100 µM | 34 ± 7.96 µM | 100 µM | 80.6 ± 2.47 µM | 53.1 ± 17.5 µM | 31.6 ± 0.00 µM (≈ 13.4 µg/mL) |  |  | 100 µM |  | 
11 | CC(C)=CCc1c(O)c(CC=C(C)C)c2occ(-c3ccc(O)c(O)c3)c(=O)c2c1O [Compound 31, 6,8-diprenylorobol] | no | 20 ± 1.53 µM | 100 µM | 47.1 ± 2.83 µM | 37.9 ± 14.6 µM |  |  |  | 31.6 to 100 µM |  | 
12 | CC(C)=CCC12Oc3cc(O)c(C4=CC5(C)CC(C4)c4ccc(O)cc4O5)c(O)c3C(=O)C1(O)Oc1cc(O)ccc12 (stereo not drawn) [Compound 1, sanggenon B] | 31.6 µM |  | 100 µM |  | 31.2 ± 10.1 µM | 31.6 ± 0.00 µM (≈ 18 µg/mL) |  |  | 100 or no | 28.1 ± 7.26 µM | 32 ± 9.16 µM
13 | CC(C)=CCc1cc(C2CC(=O)c3c(O)cc(O)cc3O2)ccc1O (stereo not drawn) [Compound 20, 4',5,7-trihydroxy-3'-prenylflavanone] | no | 67.9 ± 2.62 µM | 100 or no | > 100 µM | > 100 µM |  |  |  | 100 or no |  | 
14 | CC(C)=CCc1c(O)c(CC=C(C)C)c2occ(-c3ccc(O)cc3)c(=O)c2c1O [Compound 30, 6,8-diprenylgenistein] | 10 to 100 µM | 21.1 ± 0.91 µM | 31.6 to 100 µM | 48.8 ± 16 µM | 62.5 ± 5.4 µM | 10.0 ± 0.00 µM (≈ 4.06 µg/mL) | no |  |  |  | 
15 | COc1cc(C2CC(=O)c3c(cc(O)c(CC=C(C)C)c3O)O2)ccc1O (stereo not drawn) [Compound 22, 2,3-dihydro-5,7-dihydroxy-2-(4-hydroxy-3-methoxyphenyl)-6-(3-methyl-2-buten-1-yl)-4H-1-benzopyran-4-one] | no | 63.4 ± 8.31 µM |  | > 100 µM | > 100 µM | 31.6 ± 0.00 µM (≈ 11.7 µg/mL) | no | no |  |  | 
16 | COc1ccc(C2CC(=O)c3c(cc(O)c(CC=C(C)C)c3O)O2)cc1 (stereo not drawn) [Compound 19] | no | 50.5 ± 6.32 µM | 31.6 to 100 µM | > 100 µM | > 100 µM |  | no |  |  |  | 
